# According to US4196217A, “Hydroxylated amines with bacteriostatic activity” (priority 1978, dated 1980):
# “And” between values parts separate entries of the source, which are not always exact repeats. Identical values can stand only once. Like-named read-outs stand apart in the source and are kept apart here.
# Assays:
# Staphyloccus aureus = assay: bacteriostatic activity (MIC), Staphylococcus aureus; assay type: cell-based; conditions: Staphylococcus aureus, 48 h
# Procedure: (§1) The medium containing the solution to be tested is inoculated in the form of three single striae with a 10^-5 times dilution of a bacterial culture aged 16 to 18 hours grown in salted peptone broth at a temperature of 37° C.
# (§2) After inoculation, the media are stored at 37° C. for 48 hours, after which the bacterial growth is inspected. The MIC (minimum inhibiting concentrations) are expressed in micrograms of pure product per cubic centimeter of gelose medium required for inhibiting the culture (μg/cc). The control substance used is benzalconium chloride.
# (§3) Tests were also carried out to determine the bacteriostatic activity of other compounds according to the invention by the method described above and in comparison with known substances, in particular with benzalconium chloride (compound T in the Tables).
# Bacillus subtilis [1] = assay: bacteriostatic activity (MIC), Bacillus subtilis; assay type: cell-based; conditions: for MIC: Bacillus subtilis, 48 h
# Procedure: as §1, §2, §3
# Escherichia coli = assay: bacteriostatic activity (MIC), Escherichia coli; assay type: cell-based; conditions: for MIC: Escherichia coli, 48 h; for M.I.C.: hydrochloride
# Procedure: as §1, §2, §3
# Pneumobacille = assay: bacteriostatic activity (MIC), Pneumobacille; assay type: cell-based; conditions: 48 h, Table I, 37° C., read-out: MIC
# Procedure: as §2, with “The medium containing the solution to be tested is inoculated in the form of three single striae with a 10^-5 times dilution of a bacterial culture aged 16 to 18 hours grown in salted peptone broth at a temperature of 37° C. After” for “After”
# Proteus vulgaris = assay: bacteriostatic activity (MIC), Proteus vulgaris; assay type: cell-based; conditions: Proteus vulgaris, 48 h, Table I, 37° C., read-out: MIC
# Procedure: as §2, with “The medium containing the solution to be tested is inoculated in the form of three single striae with a 10^-5 times dilution of a bacterial culture aged 16 to 18 hours grown in salted peptone broth at a temperature of 37° C. After” for “After”
# Moraxella glucidolytica = assay: bacteriostatic activity (MIC), Moraxella glucidolytica; assay type: cell-based; conditions: Moraxella, 48 h, Table I, 37° C., read-out: MIC
# Procedure: as §2, with “The medium containing the solution to be tested is inoculated in the form of three single striae with a 10^-5 times dilution of a bacterial culture aged 16 to 18 hours grown in salted peptone broth at a temperature of 37° C. After” for “After”
# Bacillus subtilis [2] = assay: bactericidal activity, Bacillus subtilis; assay type: cell-based; conditions: Table II, 2 hours contact, laboratory temperature, read-out: MIC (bactericidal activity)
# Procedure: (§4) Bactericidal activity is determined by the following methods: A titrate suspension of bacteria is brought into contact over a period of 2 hours at the temperature of the laboratory with increasing dilutions of the test product. The number of bacteria still alive are counted after passage through a filtering membrane.
# M pyogenes aureus = assay: bactericidal activity, M pyogenes aureus; assay type: cell-based; conditions: Table II, 2 hours contact, laboratory temperature; read-out: MIC (bactericidal activity)
# Procedure: as §4
# [3] = test system: spores of B.subtilis var. Niger; assay: sporostatic activity (a), Petri dish dilution; assay type: cell-based; conditions: for number of colonies (average of 2 tests): approximately 200 spores
# Procedure: (a) 1 cc of a suspension of spores of B.subtilis var. Niger containing approximately 200 spores is placed in one Petri dish, whilst 1 cc of a solution containing 3 g/100 cc of the product (mother solution) or of the same mother solution diluted to 1/10th, 1/100th, etc. up to 1/100,000th, are placed in other Petri dishes. Following the addition of a culture medium, the dishes are agitated, cooled and then placed in an oven. The number of colonies obtained are then determined.
# Bacillus pyocyaneus [4] = assay: in vitro MIC on 100 strains of Bacillus pyocyaneus; assay type: cell-based; conditions: Pseudomonas aeruginosa, read-out: minimum inhibiting concentration
# Procedure: In vitro tests on the activity of the compound of Example 1 were also carried out so as to determine the activity of that compound on Bacillus pyocyaneus. The results of determining the minimum inhibiting concentration on 100 different strains are as follows: […]
# Bacillus pyocyaneus [5] = assay: bactericidal concentration on 6 different strains; assay type: cell-based
# Ps. aeruginosa = assay: in vivo effect on infection of excised wounds in rats; set-up: species or system rats infected with Ps. aeruginosa
# Procedure: The activity of the compound of Example 1 was also tested in vivo, in particular the compound was tested for its effect on Bacillus pyocyaneus in the following manner:
# Rats are intravenously injected with 1 ml of a 10^8 solution of Ps. aeruginosa. A 20 cm^2 cutaneous excision was then made in the animals.
# 30 minutes after the injection, the bacteria injected were detected in the vicinity of the wound by the replica method on a solid nutritive medium.
# One group of rats was sprayed with the compound of Example 1 (aqueous solution) in the vicinity of the wounds (1 to 3 times daily).
# A group of control rats were sprayed with sterile distilled water.
# [6] = acute toxicity, intragastric, mice; conditions: mouse, in vivo, po, both after 48 hours and after 14 days
# Procedure: The LD50 was calculated by the graphic method of J. T. Lichtfield and F. Wilcoxon (J. Pharm. Exp. Ther. 1949, 96: 99-[…]).
# ocular irritation = assay type: in vivo; conditions: 0.1 ml of a 0.5% solution
# Procedure: The method used is the method described in the Official Journal of Apr. 21, 1971, page 3863, and comprises applying to the right eye of each animal 0.1 ml of a 0.5% solution. The general total of the results is 0 which confirms the high tolerance of the product mentioned above.
# [7] = aggressiveness to the skin by repeated application; assay type: in vivo
# Text: The method used is the method described in the Official Journal of Apr. 28, 1971 for the analysis of cosmetics and beauty products, and comprises applying 0.5 cc of 2% solution over a period of 1 month to the two zones treated, one normal, the other raw, a control zone being reserved on the hindquarters of the animal.
# [8] = Table I, with 20% of serum, 37° C., 48 hours, read-out: MIC
# [9] = Table I, without serum, 37° C., 48 hours, read-out: MIC
# [10] = Table VI, bacteriostase containing 20% of serum, read-out: M.I.C.
# [11] = Table VI, bacteriostase without serum, read-out: M.I.C.
# [12] = aqueous solution sprayed near wounds, 1 to 3 times daily
smiles,measurement,setting,value
"CCCCCCCCCCOCC(O)CN.Cl (stereo not drawn) [Compound 1, 3-decyloxy-2-hydroxy-1-aminopropane hydrochloride]",MIC,Staphyloccus aureus; [8],120 µg/mL
same,MIC,Staphyloccus aureus; [9],60 µg/mL
same,MIC,Staphyloccus aureus; [10],75 µg/mL
same,MIC,Bacillus subtilis [1]; [8],50 µg/mL
same,MIC,Bacillus subtilis [1]; [9],30 µg/mL
same,MIC,Bacillus subtilis [1]; [10],60 µg/mL
same,MIC,Bacillus subtilis [1]; [11],15 µg/mL
same,M.I.C.,"Bacillus subtilis [1]; Table VI, bacteriostase containing 20% of serum, hydrochloride",50 μg/cc and 40 μg/cc
same,MIC,Escherichia coli; [8],75 µg/mL
same,MIC,Escherichia coli; [9],20 µg/mL
same,MIC,Escherichia coli; [10],60 µg/mL
same,MIC,Escherichia coli; [11],20 µg/mL
same,M.I.C.,"Escherichia coli; Table VI, bacteriostase containing 20% of serum",80 μg/cc and 75 μg/cc and 100 μg/cc
same,M.I.C.,"Escherichia coli; Table VI, bacteriostase without serum",25 μg/cc and 40 μg/cc
same,MIC,Pneumobacille; with 20% of serum,75 µg/mL
same,MIC,Pneumobacille; without serum,35 µg/mL
same,MIC,Proteus vulgaris; with 20% of serum,150 µg/mL
same,MIC,Proteus vulgaris; without serum,40 µg/mL
same,MIC,Moraxella glucidolytica; with 20% of serum,75 µg/mL
same,MIC,Moraxella glucidolytica; without serum,40 µg/mL
same,MBC,Bacillus subtilis [2],50 µg/mL
same,MBC,M pyogenes aureus,100 µg/mL
same,number of colonies (average of 2 tests),[3]; 0 dilutions to 1/10 (mother solution 3 g/100 cc),0
same,number of colonies (average of 2 tests),[3]; 1 dilution to 1/10 of mother solution 3 g/100 cc,0
same,number of colonies (average of 2 tests),[3]; 2 dilutions to 1/10 of mother solution 3 g/100 cc,18
same,number of colonies (average of 2 tests),[3]; 3 dilutions to 1/10 of mother solution 3 g/100 cc,> 200
same,number of colonies (average of 2 tests),[3]; 4 dilutions to 1/10 of mother solution 3 g/100 cc,> 200
same,number of colonies (average of 2 tests),[3]; 5 dilutions to 1/10 of mother solution 3 g/100 cc,> 200
same,MIC,"[3]; Bacillus subtilis, taking into account the dilution by the gelose culture medium, from Table III, read-out: concentration still showing sporostatic activity",20 µg/mL
same,MIC,Bacillus pyocyaneus [4]; 10 of 100 strains,100 µg/mL
same,MIC,Bacillus pyocyaneus [4]; 20 of 100 strains,25 µg/mL
same,MIC,Bacillus pyocyaneus [4]; 70 of 100 strains,50 µg/mL
same,bactericidal concentration,Bacillus pyocyaneus [5],very similar to the MIC
same,number of colonies in positive cultures in relation to control rats,Ps. aeruginosa; [12],only a very small number of colonies
same,replica cultures totally negative,Ps. aeruginosa; [12],75%
same,local tolerance,"Ps. aeruginosa; rat, in vivo",good
same,healing process,"Ps. aeruginosa; sprayed near wounds, 1 to 3 times daily",normal
same,LD50,[6],1300 mg/kg
same,"ocular irritation, general total of the results",ocular irritation,0
same,histological examination of skin,[7]; 0.5 cc of 2% solution over 1 month,did not reveal any significant modification
same,local tolerance (skin),"[7]; 0.5 cc of 2% solution over 1 month, normal and raw zones",Good local tolerance
same,haematological examination,[7]; blood from the ear vein on completion of the test,normal blood formula
